Assay results published in patent publication US20060211651A1, “Persulfated oligosaccharide acting on selectins and chemokine” (Taisho Pharmaceutical Co., Ltd., priority 2002, published 2006).
One block for each molecule: values may come before it.

How the values were obtained:
L-selectin-Ig [1] = biological target: T1, L-selectin-Ig (Homo sapiens, UniProt P14151); assay: Binding of biotinylated oligosaccharide fraction (streptavidin-alkaline phosphatase) to L-selectin-Ig; settings: FIG. 7 panel D; absorbance at 620 nm
T1 construct: purchased R & D Systems Inc
T1 sequence (P14151 with tags, fused parts or gaps limits assumed): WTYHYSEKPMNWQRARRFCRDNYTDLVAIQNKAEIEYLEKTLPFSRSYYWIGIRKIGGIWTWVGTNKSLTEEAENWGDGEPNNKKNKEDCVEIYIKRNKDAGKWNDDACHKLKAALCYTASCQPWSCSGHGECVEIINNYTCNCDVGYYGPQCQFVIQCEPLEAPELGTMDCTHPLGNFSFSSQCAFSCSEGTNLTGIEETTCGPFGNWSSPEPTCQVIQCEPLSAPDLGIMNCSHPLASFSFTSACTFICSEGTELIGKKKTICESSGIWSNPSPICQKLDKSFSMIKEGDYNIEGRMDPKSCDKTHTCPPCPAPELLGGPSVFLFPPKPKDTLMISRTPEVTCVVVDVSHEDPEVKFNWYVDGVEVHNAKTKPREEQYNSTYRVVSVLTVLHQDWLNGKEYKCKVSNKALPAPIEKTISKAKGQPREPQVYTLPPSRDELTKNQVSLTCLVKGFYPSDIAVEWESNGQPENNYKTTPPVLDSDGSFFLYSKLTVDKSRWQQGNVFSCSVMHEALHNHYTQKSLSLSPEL
Experimental: (§1) First, each of oligosaccharides was biotinylated with biotin-LC-hydrazide at a reducing end. To each of the fraction a, the fraction c, the fraction e-1 and the fraction e-2 obtained in the above item (2), 125 mM EZ-link™ biotin-LC-hydrazide and 1M NaCNBH3 in dimethyl sulfoxide/acetic acid (7:3) were added. The resulting reaction mixture was incubated at 65° C. for 3 hours, and then incubated at 37° C. for 12.5 to 18.5 hours to biotinylate an oligosaccharide. Each of the resulting reaction products was subjected to Sephadex G-25 column as described above, to remove unreacted biotin-LC-hydrazide, thereby collecting the fraction containing a biotinylated oligosaccharide. Then, the resulting fraction was evaporated to dryness.
(§2) Then, a part of a fraction containing 16 pmol of each biotinylated oligosaccharide was dissolved in 0.5 ml of the buffer A, and thereafter, each of the resulting solutions and 1 μl (2 pmol) of streptavidin-conjugated alkaline phosphatase [manufactured by Promega] were incubated at 4° C. overnight.
(§3) Each of the resulting products was 3-fold diluted with the buffer A respectively. […] Binding was determined by measuring absorbance at 620 nm using Blue Phos™ substrate. […]

P-selectin-Ig [2] = assay: Binding of biotinylated oligosaccharide fraction (streptavidin-alkaline phosphatase) to P-selectin-Ig; settings: FIG. 7 panel D; absorbance at 620 nm
Experimental: as §1, §2, §3

[3] = system: secondary lymphoid tissue chemokine; assay: Binding of biotinylated oligosaccharide fraction (streptavidin-alkaline phosphatase) to SLC; settings: FIG. 7 panel D; absorbance at 620 nm
Experimental: as §1, §2, §3

[4] = biological target: T2, γ-interferon inducible protein-10 (Homo sapiens, UniProt P02778); assay: Binding of biotinylated oligosaccharide fraction (streptavidin-alkaline phosphatase) to IP-10; settings: FIG. 7 panel D; absorbance at 620 nm
Experimental: as §1, §2, §3

[5] = biological target: T3, stromal cell-derived factor-1β (Homo sapiens, UniProt P48061); assay: Binding of biotinylated oligosaccharide fraction (streptavidin-alkaline phosphatase) to SDF-1β; settings: FIG. 7 panel D; absorbance at 620 nm
T3 construct: purchased Pepro Tech
Experimental: as §1, §2, §3

platelet factor 4 [6] = biological target: T4, platelet factor 4 (Homo sapiens, UniProt P02776); assay: Binding of biotinylated oligosaccharide fraction (streptavidin-alkaline phosphatase) to PF4; settings: FIG. 7 panel D; absorbance at 620 nm
T4 sequence (P02776 32-101): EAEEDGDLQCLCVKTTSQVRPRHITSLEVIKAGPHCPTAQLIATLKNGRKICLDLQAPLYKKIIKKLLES
Experimental: as §1, §2, §3

[7] = system: anti-versican monoclonal antibody 2B1; assay: Sandwich-type ELISA, versican binding to antibody 2B1; settings: FIG. 4 panel B
Experimental: (§4) ACHN cells were cultured for 2 days in the presence or absence of 100 mM sodium chlorate in RPMI 1640 containing 10% by weight of bovine fetal serum. After the conditioned medium was removed, cells were further cultured for 4 days in a serum-free medium, EX-CELL 610 HSF [manufactured by JRH Bioscience] in the presence or absence of 100 mM sodium chlorate. The conditioned medium was recovered, and spun at 10,000×g at 4° C. for 15 minutes to obtain each of a sodium chlorate-treated conditioned medium and sodium chlorate-untreated conditioned medium.
(§5) Binding between each of the resulting low-sulfated versican and intact versican, and chemokine was examined by sandwich-type enzyme-linked immunosorbent assay. […]
(§6) A conditioned medium of sodium chlorate-treated ACHN cells or a conditioned medium of sodium chlorate-untreated ACHN cells was added to a well of the resulting plate, followed by incubation for 1 hour. […] Binding was determined by measuring absorbance at 620 nm using alkaline phosphatase-conjugated streptavidin and Blue Phos™ substrate. […]

CD44-Ig [8] = assay: Sandwich-type ELISA, versican binding to CD44-Ig; set-up: species or system human; settings: FIG. 4 panel B
Sequence of CD44-Ig (P16070 21-178 limits assumed): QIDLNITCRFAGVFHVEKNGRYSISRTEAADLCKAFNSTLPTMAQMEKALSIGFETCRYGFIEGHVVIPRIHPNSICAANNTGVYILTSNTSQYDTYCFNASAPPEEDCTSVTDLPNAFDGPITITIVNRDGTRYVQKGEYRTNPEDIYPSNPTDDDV
Experimental: as §4, §5, §6

L-selectin-Ig [9] = biological target: T1, L-selectin-Ig; assay: Sandwich-type ELISA, versican binding to L-selectin-Ig; settings: FIG. 4 panel B
Experimental: as §4, §5, §6

P-selectin-Ig [10] = assay: Sandwich-type ELISA, versican binding to P-selectin-Ig; settings: FIG. 4 panel B
Experimental: as §4, §5, §6

[11] = system: secondary lymphoid tissue chemokine; assay: Sandwich-type ELISA, versican binding to SLC; settings: FIG. 4 panel B
Experimental: as §4, §5, §6

[12] = biological target: T2, γ-interferon inducible protein-10; assay: Sandwich-type ELISA, versican binding to IP-10; settings: FIG. 4 panel B
Experimental: as §4, §5, §6

platelet factor 4 [13] = biological target: T4, platelet factor 4; assay: Sandwich-type ELISA, versican binding to PF4; settings: FIG. 4 panel B
Experimental: as §4, §5, §6

[14] = biological target: T3, stromal cell-derived factor-1β; assay: Sandwich-type ELISA, versican binding to SDF-1β; settings: FIG. 4 panel B
Experimental: as §4, §5, §6

[15] = biological target: T5, C-terminal truncated secondary lymphoid tissue chemokine (Homo sapiens, UniProt O00585); assay: Sandwich-type ELISA, versican binding to SLC-T; settings: FIG. 4 panel B
T5 construct: gift: Dr. Melissa Swoop Wills, Vertex Pharmaceutical Co
T5 sequence (O00585 24-102 limits assumed): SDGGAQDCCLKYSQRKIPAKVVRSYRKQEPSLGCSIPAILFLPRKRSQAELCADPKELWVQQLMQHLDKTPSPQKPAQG
Experimental: as §4, §5, §6

[16] = biological target: T6, stromal cell-derived factor-1α (Homo sapiens, UniProt P48061); assay: Sandwich-type ELISA, versican binding to SDF-1α; settings: FIG. 4 panel B
T6 construct: purchased Pepro Tech
Experimental: as §4, §5, §6

L-selectin-Ig [17] = biological target: T1, L-selectin-Ig; assay: Binding inhibition assay (ELISA), biotinylated versican to L-selectin-Ig, various concentrations; settings: dose-dependent, FIG. 2 panel A
Experimental: (§7) Inhibition assay of binding between versican and each of L-selectin, P-selectin and CD44 was performed as follows. First, each well on a 96 well flat bottom microtiter plate (Coster EIA/RIA plate No. 3690) was coated with L-selectin-Ig (3 μg/ml), P-selectin-Ig (4 μg/ml) or CD44-Ig (0.25 μg/ml) by a conventional procedure. […] The plate was incubated at room temperature for 2 hours. Thereafter, the plate was washed with the buffer A, and enzyme-linked immunosorbent assay was performed in the same manner as described in Kawashima, H. et al. [J. Biol. Chem., 275, 35448-35456 (2000)]. Binding was determined by measuring absorbance at 620 nm using alkaline phosphatase-conjugated streptavidin and Blue Phos™ substrate.

P-selectin-Ig [18] = assay: Binding inhibition assay (ELISA), biotinylated versican to P-selectin-Ig, various concentrations; settings: dose-dependent, FIG. 2 panel B
Experimental: as §7

CD44-Ig [19] = assay: Binding inhibition assay (ELISA), biotinylated versican to CD44-Ig, various concentrations; set-up: species or system human; settings: FIG. 2 panel C
Experimental: as §7

E-selectin-Ig = assay: Immunoprecipitation of versican from ACHN conditioned medium with E-selectin-Ig; assay type: binding; settings: FIG. 1 lanes 13 and 14
Experimental: ACHN cells were pre-incubated at 37° C. for 6 hours in RPMI 1640 containing 10% by weight of bovine fetal serum in the presence or absence of 30 mM sodium chlorate. A confluent monolayer of the resulting ACHN cells was labeled by incubation for 18 hours in the presence or absence of 30 mM sodium chlorate, in a medium of either of:
Immunoprecipitation was performed as follows, according to the method described in the publication of Kawashima, H. et al. [Int. Immunol., 11, 393-405 (1999); all teachings of which are hereby incorporated by reference] except that beads were washed using buffer A (0.05% Tween 20, 20 mM HEPES-NaOH, 0.15M NaCl, 1 mM CaCl2, 1 mM MgCl2, pH6.8).
Each of the antibody and the Ig chimera shown in FIG. 1 (equivalent to 10 μg) was coupled to Protein A-Sepharose column (equivalent to 10 μL) by a conventional method, to obtain antibody-coupled Protein A-Sepharose or Ig chimera-coupled Protein A-Sepharose. […]
Thereafter, the beads were washed with the buffer A, to obtain precipitates. The resulting precipitates were subjected to SDS-agarose-PAGE, and thereafter, signal ascribed to ^35S label on a gel was detected by autoradiography.

monomeric L-selectin = settings: immobilized ligand; cited from earlier work

binding of biotinylated oligosaccharide fraction to L-selectin-Ig (L-selectin-Ig [1]): bound
binding of biotinylated oligosaccharide fraction to P-selectin-Ig (P-selectin-Ig [2]): bound
binding of biotinylated oligosaccharide fraction to secondary lymphoid tissue chemokine [3]: bound
binding of biotinylated oligosaccharide fraction to γ-interferon inducible protein-10 [4]: bound
binding of biotinylated oligosaccharide fraction to stromal cell-derived factor-1β [5]: bound
Molecule: GlcAβ1-3GalNAc(4,6-O-disulfate)β1-4GlcAβ1-3GalNAc(4,6-O-disulfate) [fraction e-2]

binding of biotinylated oligosaccharide fraction to L-selectin-Ig (L-selectin-Ig [1]): did not bind
binding of biotinylated oligosaccharide fraction to P-selectin-Ig (P-selectin-Ig [2]): did not bind
binding of biotinylated oligosaccharide fraction to secondary lymphoid tissue chemokine [3]: did not bind
binding of biotinylated oligosaccharide fraction to γ-interferon inducible protein-10 [4]: did not bind
binding of biotinylated oligosaccharide fraction to stromal cell-derived factor-1β [5]: did not bind
binding of biotinylated oligosaccharide fraction to platelet factor 4 (platelet factor 4 [6]): moderately bound
Molecule: GlcAβ1-3GalNAc(4,6-O-disulfate)β1-4GlcAβ1-3GalNAc(4-O-sulfate) [fraction e-1]

Molecule: intact versican: versican from conditioned medium of sodium chlorate-untreated ACHN cells
binding to anti-versican monoclonal antibody 2B1 [7]: bound
binding to CD44-Ig (CD44-Ig [8]): bound
binding to L-selectin-Ig (L-selectin-Ig [9]): bound
binding to P-selectin-Ig (P-selectin-Ig [10]): bound
binding to secondary lymphoid tissue chemokine [11]: remarkably bound
binding to γ-interferon inducible protein-10 [12]: remarkably bound
binding to platelet factor 4 (platelet factor 4 [13]): remarkably bound
binding to stromal cell-derived factor-1β [14]: remarkably bound
binding to recombinant truncated-type secondary lymphoid tissue chemokine [15]: scarcely bound
binding to stromal cell-derived factor-1α [16]: did not bind

inhibition of binding between biotinylated versican and L-selectin-Ig (L-selectin-Ig [17]): not inhibited
inhibition of binding between biotinylated versican and P-selectin-Ig (P-selectin-Ig [18]): not inhibited
inhibition of binding between biotinylated versican and CD44-Ig (CD44-Ig [19]): not inhibited
Molecule: keratan sulfate

Molecule: low-sulfated versican: versican from conditioned medium of ACHN cells treated with 100 mM sodium chlorate, mainly unsulfated CS/DS chain
binding to anti-versican monoclonal antibody 2B1 [7]: bound
binding to CD44-Ig (CD44-Ig [8]): bound
binding to recombinant truncated-type secondary lymphoid tissue chemokine [15]: scarcely bound
binding to stromal cell-derived factor-1α [16]: did not bind

Molecule: unsulfated versican: versican from ACHN cells treated with 30 mM sodium chlorate
interaction with E-selectin-Ig (E-selectin-Ig): did not interact

B1: GlyCAM-1: known ligand of L-selectin (protein, UniProt Q02596 20-151, looked up)
Glycosylation-dependent cell …: LPGSKDELQMKTQPTDAIPAAQSTPTSYTSEESTSSKDLSKEPSIFREELISKDNVVIESTKPENQEAQDGLRSGSSQLEETTRPTTSAATTSEENLTKSSQTVEEELGKIIEGFVTGAEDIISGASRITKS
Kd (monomeric L-selectin): 108 µM
association rate (monomeric L-selectin): ≥ 10^5 M^−1s^−1
